Data published in ChEMBL document CHEMBL1201862, “PubChem BioAssay data set” (2004).
Counter-ions that a name gives are not always drawn. Calls of active or inactive are those of the source.

Key:
Genome polyprotein = Genome polyprotein (dengue virus type 2, UniProt P29990); assay: Dengue-2 NS5 methyltransferase inhibitors, primary screen, biochemical, confirmation dose response (AID 588689); type: functional
[1] = target: T1, Hepatocyte nuclear factor 4-alpha (Homo sapiens, UniProt P41235); type: functional, cell-based;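 further: biochemical luminescence-based dose-response counterscreen measuring inhibition of HNF4 dimerization, run alongside a screen for blockers of ABHD5–perilipin-5 interaction; split luciferase complementation of HNF4 fusion proteins in cell lysate measuring dimerization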
T1 sequence (P41235 whole entry): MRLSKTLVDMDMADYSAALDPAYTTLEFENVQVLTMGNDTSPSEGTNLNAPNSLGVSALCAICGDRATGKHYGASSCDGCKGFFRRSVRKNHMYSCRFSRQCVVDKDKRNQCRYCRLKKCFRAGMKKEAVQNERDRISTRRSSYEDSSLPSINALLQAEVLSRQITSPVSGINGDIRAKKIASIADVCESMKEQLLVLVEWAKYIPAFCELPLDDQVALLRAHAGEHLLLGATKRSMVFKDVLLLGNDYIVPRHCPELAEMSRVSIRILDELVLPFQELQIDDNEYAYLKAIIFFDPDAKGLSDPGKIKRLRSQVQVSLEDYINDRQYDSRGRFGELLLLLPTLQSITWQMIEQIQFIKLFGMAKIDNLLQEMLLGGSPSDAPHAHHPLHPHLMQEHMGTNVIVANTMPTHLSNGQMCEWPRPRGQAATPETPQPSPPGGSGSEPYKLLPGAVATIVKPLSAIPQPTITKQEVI

[2] = target: Nuclear receptor subfamily 5 group A member 2 (Homo sapiens, UniProt O00482); type: functional, cell-based;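 further: HEK293T cells transfected with LRH-1 and a StAR promoter luciferase reporter; potency for inhibitors that lower LRH-1 driven reporter light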
[3] = StAR promoter reporter inhibition counter-screen, dose response, counter-screen for LRH-1 inverse agonist project, cell-based, luminescence, luciferase reporter (AID 651969); type: functional
Steroidogenic factor 1 = Steroidogenic factor 1 (Homo sapiens, UniProt Q13285); assay: Counterscreen for inverse agonists of the liver receptor homolog-1 (LRH-1; NR5A2): Luminescence-based cell-based high throughput dose response assay to identify inverse agonists of the Steroidogenic Factor 1 Nuclear Receptor (SF1; NR5A1).; type: functional
Caspase-3 = target: T2, Caspase-3 (Homo sapiens, UniProt P42574); assay: SAR Analysis of small molecule inhibitors of Sentrin-specific proteases (SENPs) using a Caspase-3 Selectivity assay. [Related pubchem assays (depositor defined):AID2540, AID2599, AID434973, AID489001]; type: functional
T2 sequence (P42574 whole entry): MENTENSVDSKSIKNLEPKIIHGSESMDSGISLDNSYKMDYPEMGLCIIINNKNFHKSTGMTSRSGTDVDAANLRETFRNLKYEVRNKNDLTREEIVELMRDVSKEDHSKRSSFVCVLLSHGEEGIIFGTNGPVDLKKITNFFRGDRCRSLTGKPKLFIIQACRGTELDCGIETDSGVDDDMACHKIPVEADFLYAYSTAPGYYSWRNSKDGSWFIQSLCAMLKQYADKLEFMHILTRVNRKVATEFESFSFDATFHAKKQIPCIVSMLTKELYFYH

[4] = target: T3, Sentrin-specific protease 6 (Homo sapiens, UniProt Q9GZR1); assay: SAR Analysis of small molecule inhibitors of Sentrin-specific protease 6 (SENP6) using a Luminescent assay. [Related pubchem assays (depositor defined):AID2582, AID2599]; type: functional
T3 sequence (Q9GZR1 whole entry): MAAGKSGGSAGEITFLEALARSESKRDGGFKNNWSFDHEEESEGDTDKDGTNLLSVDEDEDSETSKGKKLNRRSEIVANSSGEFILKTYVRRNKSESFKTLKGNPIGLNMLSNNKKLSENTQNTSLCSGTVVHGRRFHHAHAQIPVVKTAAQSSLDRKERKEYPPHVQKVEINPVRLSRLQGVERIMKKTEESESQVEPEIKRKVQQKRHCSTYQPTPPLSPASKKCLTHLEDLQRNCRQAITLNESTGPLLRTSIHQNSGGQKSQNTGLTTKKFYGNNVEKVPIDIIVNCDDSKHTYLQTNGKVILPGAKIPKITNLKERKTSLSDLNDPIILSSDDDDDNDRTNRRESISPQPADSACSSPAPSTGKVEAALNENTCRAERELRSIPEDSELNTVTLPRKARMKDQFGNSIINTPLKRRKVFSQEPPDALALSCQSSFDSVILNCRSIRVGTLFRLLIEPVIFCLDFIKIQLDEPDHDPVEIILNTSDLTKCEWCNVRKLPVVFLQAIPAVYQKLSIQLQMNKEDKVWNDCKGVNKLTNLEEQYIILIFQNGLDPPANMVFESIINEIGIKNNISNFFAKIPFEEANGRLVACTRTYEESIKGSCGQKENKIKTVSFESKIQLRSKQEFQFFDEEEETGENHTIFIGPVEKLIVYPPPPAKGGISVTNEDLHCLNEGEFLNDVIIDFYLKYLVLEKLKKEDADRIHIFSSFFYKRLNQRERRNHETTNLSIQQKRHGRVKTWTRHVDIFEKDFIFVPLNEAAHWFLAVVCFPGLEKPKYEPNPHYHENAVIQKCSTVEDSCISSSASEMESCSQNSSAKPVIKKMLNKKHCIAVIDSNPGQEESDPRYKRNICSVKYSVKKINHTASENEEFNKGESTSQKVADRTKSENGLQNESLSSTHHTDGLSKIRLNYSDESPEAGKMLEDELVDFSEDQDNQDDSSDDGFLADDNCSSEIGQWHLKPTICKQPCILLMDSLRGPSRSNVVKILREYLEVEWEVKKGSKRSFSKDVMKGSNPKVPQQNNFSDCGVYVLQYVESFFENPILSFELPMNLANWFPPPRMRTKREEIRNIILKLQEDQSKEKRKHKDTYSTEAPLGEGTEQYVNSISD

[5] = target: T4, Sentrin-specific protease 8 (Homo sapiens, UniProt Q96LD8); assay: SENP8 protease inhibitors, SAR follow-up, biochemical, luminescence (AID 504501); type: functional
T4 sequence (Q96LD8 whole entry): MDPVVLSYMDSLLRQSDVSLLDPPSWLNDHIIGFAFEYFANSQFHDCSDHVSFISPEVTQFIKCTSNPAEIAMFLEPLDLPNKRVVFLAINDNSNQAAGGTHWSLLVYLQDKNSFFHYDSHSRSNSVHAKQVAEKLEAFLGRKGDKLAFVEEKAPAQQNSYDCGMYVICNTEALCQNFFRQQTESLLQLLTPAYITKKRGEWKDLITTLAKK

[6] = target: T5, Sentrin-specific protease 7 (Homo sapiens, UniProt Q9BQF6); assay: SENP7 protease inhibitors, SAR follow-up, biochemical, luminescence (AID 504497); type: functional
T5 sequence (Q9BQF6 whole entry): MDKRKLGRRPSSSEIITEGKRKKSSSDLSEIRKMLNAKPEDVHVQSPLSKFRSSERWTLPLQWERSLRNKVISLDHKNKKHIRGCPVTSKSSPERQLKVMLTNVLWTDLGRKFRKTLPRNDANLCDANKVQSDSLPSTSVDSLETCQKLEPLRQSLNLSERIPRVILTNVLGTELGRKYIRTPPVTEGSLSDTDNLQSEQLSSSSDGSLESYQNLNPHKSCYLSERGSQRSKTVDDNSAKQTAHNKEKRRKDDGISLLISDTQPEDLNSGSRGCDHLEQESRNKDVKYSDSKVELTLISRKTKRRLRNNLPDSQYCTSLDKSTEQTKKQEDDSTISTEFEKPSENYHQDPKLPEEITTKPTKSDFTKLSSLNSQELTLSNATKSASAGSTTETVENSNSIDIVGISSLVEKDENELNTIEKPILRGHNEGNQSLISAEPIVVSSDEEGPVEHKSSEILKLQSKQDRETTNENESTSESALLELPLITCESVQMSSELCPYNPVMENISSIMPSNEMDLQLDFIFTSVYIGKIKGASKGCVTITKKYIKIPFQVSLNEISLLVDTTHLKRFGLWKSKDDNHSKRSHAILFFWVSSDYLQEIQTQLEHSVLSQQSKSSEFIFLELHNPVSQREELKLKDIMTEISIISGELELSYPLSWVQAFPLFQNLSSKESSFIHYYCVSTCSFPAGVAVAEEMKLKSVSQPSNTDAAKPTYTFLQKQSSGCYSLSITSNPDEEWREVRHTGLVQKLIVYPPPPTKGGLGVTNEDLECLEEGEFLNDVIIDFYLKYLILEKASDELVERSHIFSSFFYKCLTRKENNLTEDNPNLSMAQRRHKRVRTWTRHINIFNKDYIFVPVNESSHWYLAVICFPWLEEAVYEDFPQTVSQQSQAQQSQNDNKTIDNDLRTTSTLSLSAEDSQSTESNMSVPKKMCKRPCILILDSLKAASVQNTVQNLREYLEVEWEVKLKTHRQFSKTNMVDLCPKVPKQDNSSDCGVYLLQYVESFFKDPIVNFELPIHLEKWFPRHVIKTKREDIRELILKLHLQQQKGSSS

[7] = target: T6, Probable nicotinate-nucleotide adenylyltransferase (Staphylococcus aureus (strain N315), UniProt P65502); type: functional, Staphylococcus aureus subsp. aureus N315;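 on IC50 Mean: confirmatory dose-response retesting of NadD inhibitor hits first found in an ultra-high-throughput screen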
[8] = target: T6, Probable nicotinate-nucleotide adenylyltransferase; type: functional, Staphylococcus aureus subsp. aureus N315; conditions: read-out: IC50_Mean
Melanocortin receptor 4 = Melanocortin receptor 4 (Homo sapiens, UniProt P32245); type: functional, cell-based;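 further: Cell-based assay with luminescence read-out, confirmatory dose-response testing for agonist activity of biased ligands at MC4R; human U2OS cells with tagged receptor and beta-arrestin; potency of agonists that increase receptor coupling to beta-arrestin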
Streptococcus = assay: Group A Streptococcus viability loss, dose response, counter-screen for streptokinase expression inhibitor project, luminescence, BacTiterGlo (AID 1915); type: functional, organism-based;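 further: potency for reduction of bacterial viability or growth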
[9] = cytotoxicity toward NIH3T3 fibroblasts, dose response, counter-screen, cell-based, ATP luminescence, mouse fibroblasts (AID 2010); type: functional;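 further: cells exposed to compound for about 90 hours before reading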
[10] = tested on: Streptococcus sp. 'group A'; assay: growth inhibition of control SK(-) GAS strain, dose response, counter-screen for streptokinase expression inhibitor project, luminescence, kanamycin, BacTiterGlo, confirmation (AID 1900); type: functional, organism-based
Streptokinase A = target: T7, Streptokinase A (Streptococcus pyogenes serotype M1, UniProt P10520); assay: S. pyogenes streptokinase expression inhibitors, potency, dose response, plasminogen activation absorbance, OD405 (AID 1914); type: functional, Streptococcus pyogenes M1 GAS;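 further: secreted streptokinase activity via plasminogen activation per viability signal from cell pellet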
T7 sequence (P10520 whole entry): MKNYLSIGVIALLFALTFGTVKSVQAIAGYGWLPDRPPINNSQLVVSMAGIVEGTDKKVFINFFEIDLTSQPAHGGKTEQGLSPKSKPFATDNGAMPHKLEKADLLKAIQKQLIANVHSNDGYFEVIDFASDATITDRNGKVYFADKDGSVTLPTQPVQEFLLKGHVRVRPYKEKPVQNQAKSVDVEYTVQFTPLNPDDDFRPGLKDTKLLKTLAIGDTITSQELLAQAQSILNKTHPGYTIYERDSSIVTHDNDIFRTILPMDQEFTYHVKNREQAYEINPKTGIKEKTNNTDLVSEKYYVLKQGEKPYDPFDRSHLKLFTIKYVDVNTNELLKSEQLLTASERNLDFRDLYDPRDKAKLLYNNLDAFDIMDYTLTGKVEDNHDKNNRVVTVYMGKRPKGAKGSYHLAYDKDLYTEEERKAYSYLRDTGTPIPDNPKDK

[11] = inhibitors of intracellular T. cruzi replication, confirmation, NIH3T3 host cells, beta-gal luminescence (AID 2044); type: functional, cell-based;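 further: intracellular parasites grown in NIH/3T3 mouse fibroblasts as host cells; luminescent beta-galactosidase reporter signal from transgenic T. cruzi replicating inside host cells; inhibitors lower the luminescence signal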

Chain of Melanocortin receptor 4 (P32245 whole entry): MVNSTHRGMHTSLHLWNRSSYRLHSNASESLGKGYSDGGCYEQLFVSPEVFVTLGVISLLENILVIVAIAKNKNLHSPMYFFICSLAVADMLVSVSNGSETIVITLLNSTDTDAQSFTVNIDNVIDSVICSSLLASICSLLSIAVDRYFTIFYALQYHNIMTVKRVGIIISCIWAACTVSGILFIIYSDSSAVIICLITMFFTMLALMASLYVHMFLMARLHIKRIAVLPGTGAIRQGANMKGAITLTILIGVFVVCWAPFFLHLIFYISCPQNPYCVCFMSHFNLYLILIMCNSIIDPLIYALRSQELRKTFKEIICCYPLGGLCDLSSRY
Chain of Steroidogenic factor 1 (Q13285 whole entry): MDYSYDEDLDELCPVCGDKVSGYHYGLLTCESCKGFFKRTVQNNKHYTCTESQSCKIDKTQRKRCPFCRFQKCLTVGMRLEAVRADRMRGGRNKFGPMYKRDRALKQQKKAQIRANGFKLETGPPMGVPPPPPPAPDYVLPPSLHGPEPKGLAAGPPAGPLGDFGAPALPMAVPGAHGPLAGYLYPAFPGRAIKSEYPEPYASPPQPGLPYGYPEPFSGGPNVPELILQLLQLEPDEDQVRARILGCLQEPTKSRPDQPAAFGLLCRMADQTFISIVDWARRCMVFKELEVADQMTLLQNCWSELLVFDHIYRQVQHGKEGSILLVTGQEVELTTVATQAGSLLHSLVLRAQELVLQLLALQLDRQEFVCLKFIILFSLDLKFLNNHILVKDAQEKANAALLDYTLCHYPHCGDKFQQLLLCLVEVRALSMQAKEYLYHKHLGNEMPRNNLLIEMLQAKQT
Chain of Nuclear receptor subfamily 5 group A member 2 (O00482 whole entry): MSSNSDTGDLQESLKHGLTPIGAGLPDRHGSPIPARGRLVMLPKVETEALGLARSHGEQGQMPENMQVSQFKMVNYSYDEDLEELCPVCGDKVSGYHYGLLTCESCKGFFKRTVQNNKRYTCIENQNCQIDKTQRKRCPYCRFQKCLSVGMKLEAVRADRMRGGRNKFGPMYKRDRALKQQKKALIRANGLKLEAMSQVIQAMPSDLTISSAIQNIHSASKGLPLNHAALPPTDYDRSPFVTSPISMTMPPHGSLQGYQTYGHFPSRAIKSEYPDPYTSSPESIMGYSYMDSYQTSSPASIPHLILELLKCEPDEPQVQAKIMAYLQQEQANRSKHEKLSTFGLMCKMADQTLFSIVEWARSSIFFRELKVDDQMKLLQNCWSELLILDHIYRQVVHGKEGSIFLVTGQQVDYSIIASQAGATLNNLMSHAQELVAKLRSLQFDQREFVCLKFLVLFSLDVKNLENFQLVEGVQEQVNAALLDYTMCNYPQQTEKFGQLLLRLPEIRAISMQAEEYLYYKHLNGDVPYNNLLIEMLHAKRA
T6 sequence (P65502 whole entry): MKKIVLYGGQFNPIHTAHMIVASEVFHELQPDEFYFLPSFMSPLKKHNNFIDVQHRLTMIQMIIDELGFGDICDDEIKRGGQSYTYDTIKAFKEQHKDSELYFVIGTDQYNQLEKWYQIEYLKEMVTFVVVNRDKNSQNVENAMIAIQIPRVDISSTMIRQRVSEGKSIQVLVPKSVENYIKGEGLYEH
Chain of Genome polyprotein (P29990 2492-3391 limits assumed): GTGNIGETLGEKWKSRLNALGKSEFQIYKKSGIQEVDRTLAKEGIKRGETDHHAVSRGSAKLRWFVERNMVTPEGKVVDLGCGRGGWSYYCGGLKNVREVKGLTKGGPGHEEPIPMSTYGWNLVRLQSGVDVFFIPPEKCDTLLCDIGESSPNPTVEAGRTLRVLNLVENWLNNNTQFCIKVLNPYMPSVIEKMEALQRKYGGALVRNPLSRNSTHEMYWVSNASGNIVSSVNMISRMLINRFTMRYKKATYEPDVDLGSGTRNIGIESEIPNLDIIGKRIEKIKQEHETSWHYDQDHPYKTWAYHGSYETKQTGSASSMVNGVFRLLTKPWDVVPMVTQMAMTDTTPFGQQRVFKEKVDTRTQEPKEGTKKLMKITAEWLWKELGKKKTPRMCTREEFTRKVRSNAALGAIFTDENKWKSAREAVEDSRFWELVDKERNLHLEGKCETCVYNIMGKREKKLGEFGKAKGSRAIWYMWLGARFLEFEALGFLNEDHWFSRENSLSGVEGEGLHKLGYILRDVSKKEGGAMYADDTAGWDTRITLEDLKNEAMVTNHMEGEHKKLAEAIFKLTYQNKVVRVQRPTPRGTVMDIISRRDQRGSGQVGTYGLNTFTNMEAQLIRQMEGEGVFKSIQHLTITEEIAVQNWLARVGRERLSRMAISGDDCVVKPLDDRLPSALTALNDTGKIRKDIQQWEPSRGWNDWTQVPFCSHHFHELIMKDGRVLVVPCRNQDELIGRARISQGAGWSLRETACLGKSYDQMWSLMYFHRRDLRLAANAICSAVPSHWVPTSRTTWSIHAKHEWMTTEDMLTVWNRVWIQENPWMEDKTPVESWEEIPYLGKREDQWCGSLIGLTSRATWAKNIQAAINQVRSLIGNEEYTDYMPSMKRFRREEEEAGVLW

O=C1NC(=O)N(c2ccccc2F)C(=O)/C1=C/c1ccc(Oc2ccc([N+](=O)[O-])cn2)cc1
IC50 (Genome polyprotein): 56.1 µM (active) | IC50 [1]: 1.88 µM (active)

Cc1ccc(C)c(NC(=O)CSc2nnc(-c3[nH]nc4ccccc34)o2)c1
IC50 [2]: 53.5 µM (inactive) | IC50 [3]: 35.9 µM (inactive) | IC50 (Steroidogenic factor 1): 5.07 µM (active)

CCOc1ccc(CCNC(=O)CN2C(=O)NC3(CCc4ccccc43)C2=O)cc1OCC (configuration not stated)
IC50 [2]: 16.7 µM (inactive) | IC50 [3]: 35.9 µM (inactive) | IC50 (Steroidogenic factor 1): 4.33 µM (active)

Cc1ccc2nc(NC(=O)c3cc(=O)c4cc(C)c(C)cc4o3)sc2c1
IC50 (Caspase-3): > 99 µM (inactive) | IC50 [4]: > 99 µM (inactive) | IC50 [5]: > 99 µM (inactive) | IC50 [6]: > 99 µM (inactive)

Cc1ccc(-n2nc3c(c2NC(=O)c2ccc(Br)o2)CSC3)c(C)c1
IC50 [7]: 2.11 µM (active) | IC50 [8]: 8.03 µM (active)

CCOc1ccc(Cc2nnc(SCC(=O)Nc3ccc(C(C)=O)cc3)nc2O)cc1
IC50 [2]: 13.5 µM (inactive) | IC50 [3]: 35.9 µM (inactive) | IC50 (Steroidogenic factor 1): 5.1 µM (active)

Cc1ccc(NC(=O)c2ncn(CCCN3CCN(Cc4cccc5ccccc45)CC3)n2)cc1C
EC50 (Melanocortin receptor 4): > 89.2 µM (inactive)

CC(C)CC(=O)Nc1ccc(-c2nc3cc(Cl)ccc3s2)cc1
IC50 (Caspase-3): > 99 µM (inactive) | IC50 [4]: > 99 µM (inactive) | IC50 [5]: > 99 µM (inactive) | IC50 [6]: 82.7 µM (active)

Cc1cccnc1C(NC(=O)C1CCN(CCOc2ccc(Cl)cc2Cl)CC1)c1ccc(Cl)cc1 (configuration not stated)
EC50 (Melanocortin receptor 4): > 89.2 µM (inactive)

NC(Cc1ccc(C(F)(F)F)cc1)c1csc(Nc2nccc(C(F)(F)F)n2)n1 (configuration not stated)
EC50 (Melanocortin receptor 4): > 89.2 µM (inactive)

COc1ccc(CCNC(=O)CN2C(=O)NC3(CCCCC3)C2=O)cc1
IC50 [2]: 16.5 µM (inactive) | IC50 [3]: 35.9 µM (inactive) | IC50 (Steroidogenic factor 1): 1.74 µM (active)

Fc1cc(F)cc(-c2noc(/C=C/c3ccccc3Cl)n2)c1
IC50 (Caspase-3): > 99 µM (inactive) | IC50 [4]: > 99 µM (inactive) | IC50 [5]: > 99 µM (inactive) | IC50 [6]: > 99 µM (inactive)

O=C(NC1CCCCC1)C(c1ccccc1F)n1c(=O)c(-c2ccco2)nc2ccccc21 (configuration not stated)
IC50 [1]: 1.84 µM (active)

Nc1ccc(-c2noc(/C=C/c3ccccc3)n2)cc1[N+](=O)[O-]
IC50 (Caspase-3): > 99 µM (inactive) | IC50 [4]: > 99 µM (inactive) | IC50 [5]: > 99 µM (inactive) | IC50 [6]: > 99 µM (inactive)

CN(C)CCOc1ccc(/C(=C(/CCCl)c2ccccc2)c2ccccc2)cc1 [TOREMIFENE CITRATE]
EC50 (Streptococcus): 8.17 µM (active) | EC50 [9]: > 60 µM (not active) | EC50 [10]: 5.82 µM (active) | IC50 [1]: 7.87 µM (active) | EC50 (Streptokinase A): 25.9 µM (active) | EC50 [11]: 28.4 µM (active)
